The values below come from article PMC11434342, “Novel Autotaxin Inhibitor ATX-1d Significantly Enhances Potency of Paclitaxel—An In Silico and In Vitro Study” (Molecules, 2024).

The first experiment has as its target T1, autotaxin (ATX) (Homo sapiens, UniProt Q13822).
T1 construct: gene ENPP2; human recombinant ATX (hATX)
The experiment in a line: FS-3 fluorogenic substrate hydrolysis, dose-response with purified recombinant ATX ([…]). In kind it is biochemical.
Settings: not given
Take `CCCCCCCCCCCCCCCc1ccc(CP(=O)(O)O)cc1` [BMP-22, reference compound]: the half-maximal inhibitory concentration (IC50) (commonly the midpoint of a concentration-inhibition curve) was 200 ± 100 nM.

Another experiment concerns the target T1, autotaxin (ATX). The experiment in a line: biochemical. On the set-up: Inhibition of hydrolysis of fluorogenic lysophospholipid substrate FS-3 by recombinant human autotaxin, fluorescence read-out. The note with it: read-out: % inhibition in ATX assay at 10 µM. On the procedure: Human recombinant ATX (hATX) was purified as previously described. The enzymatic activity of ATX was assessed by measuring the hydrolysis of the synthetic lipid-like FRET-based substrate FS-3 from Echelon Biosciences. Compounds predicted to have potential inhibitory effects through molecular docking were initially screened at a concentration of 10 μM. The reaction mixtures were prepared in 60 μL volumes and loaded into triplicate wells of black-wall 96-well plates. The assay buffer consisted of 50 mM Tris, 140 mM NaCl, 5 mM KCl, 1 mM CaCl2, 1 mM MgCl2, and 10 μM BSA, with the pH adjusted to 8.0. Each assay contained 4 nM ATX and 1 μM FS-3. The test compounds were diluted in an assay buffer and tested in technical triplicates. […] Fluorescence readings were taken at 2 min intervals over 1 h using excitation and emission wavelengths of 485 and 538 nm. Fluorescence data were collected as relative fluorescence units (RFUs) and averaged for the triplicate samples. A compound was considered an experimentally validated hit if it caused more than 50% inhibition of FS-3 hydrolysis at 10 µM concentration. For dose–response studies, nonlinear regression analysis was performed using GraphPad Prism (GraphPad Software, version 10.0.2 (232), San Diego, CA, USA). A variable four-parameter slope model was applied to fit the data, allowing for determining the Hill slope and interpolation of the IC50 ± SD. Fluorescence measurements were conducted using the CLARIOstar Plus plate reader from BMG Labtech (BMG Labtech, Ortenberg, Baden-Württemberg, Germany). Inhibition assays targeting the ATX-mediated hydrolysis of FS-3 were performed with 45 selected compounds, each at a fixed concentration of 10 μM. Compounds were classified as experimentally validated hits if they achieved more than 50% inhibition of the hydrolysis of the model lysophospholipase D substrate FS-3. From this initial screening, only one compound, ATX-1d, met this criterion (Supplementary Information, Table S1). ATX-1d was then subjected to a dose–response assay to determine its IC50 value (Figure 4). […] BMP-22, a previously validated inhibitor of ATX, was used as a control. The second replicate is shown in the Supplementary Information, Figure S2.
On to `COC(=O)/C(=C1\C(=O)N(C)C(=O)C1(c1ccccn1)C1CC(=O)N(C)C1=O)c1ccc(C(C)(C)C)cc1` (centres unmarked) [ATX-1a], for which the inhibition (in general, the change of the read-out against control, counted positive when it falls) at 10 µM was 42.5%.

On to `CCN1C(=O)CC(C2(c3ccccn3)C(=O)N(CC)C(=O)/C2=C(\C(=O)OC)c2ccccc2)C1=O` (centres unmarked) [ATX-1b], for which the inhibition at 10 µM came out at 3.59%.

As to `CCOC(=O)/C(=C1\C(=O)N(C)C(=O)C1(c1ccccn1)C1CC(=O)N(C)C1=O)c1ccc(C)cc1` (centres unmarked) [ATX-1f], the inhibition at 10 µM is -0.36%.

Turning to `CCN1C(=O)CC(C2(c3ccccn3)C(=O)N(CC)C(=O)/C2=C(\C(=O)OC)c2cccc(OC)c2)C1=O` (centres unmarked) [ATX-1h], the inhibition at 10 µM worked out at 7.6%.

In the case of `CCN1C(=O)CC(C2(c3ccccn3)C(=O)N(CC)C(=O)/C2=C(\C(=O)OC)c2ccc(F)cc2)C1=O` (centres unmarked) [ATX-1i], the inhibition at 10 µM was determined as 10%.

On to `CCC1=N[C@](C(=O)OC)(c2ccc(Br)cc2)[C@@H]2C(=O)N(C)C(=O)C12` (some centres unmarked) [ATX-2a], for which the inhibition at 10 µM is 19%.

For the molecule `CCC1=N[C@](C(=O)OC)(c2ccc(Br)cc2)[C@@H]2C(=O)N(Cc3ccccc3)C(=O)C12` (some centres unmarked) [ATX-2b], the inhibition at 10 µM was 24.9%.

As to `CCC1=N[C@](C(=O)OC)(c2cccc(OC)c2)[C@@H]2C(=O)N(C)C(=O)C12` (some centres unmarked) [ATX-2c], the inhibition at 10 µM was found to be 13%.

As for `CCN1C(=O)C2C(C)=N[C@](C(=O)OC)(c3cccc(OC)c3)[C@@H]2C1=O` (some centres unmarked) [ATX-2d], the inhibition at 10 µM amounted to 4.61%.

On to `CCC1=N[C@](C(=O)OC)(c2ccc(Br)cc2)[C@@H]2C(=O)N(CC)C(=O)C12` (some centres unmarked) [ATX-2e], for which the inhibition at 10 µM came out at 10.1%.

As to `CCC1=N[C@](C(=O)OC)(c2ccccc2)[C@@H]2C(=O)N(Cc3ccccc3)C(=O)C12` (some centres unmarked) [ATX-2g], the inhibition at 10 µM came to 3.38%.

In the case of `COC(=O)C1(c2ccc(Cl)cc2)OC(c2ccc(F)cc2F)C2C(=O)N(c3ccccc3)C(=O)C21` (centres unmarked) [ATX-3c], the inhibition at 10 µM was -35.9%.

As to `COC(=O)C1(c2ccc(Cl)cc2)OC(c2cccc(OC)c2)C2C(=O)N(c3ccccc3)C(=O)C21` (centres unmarked) [ATX-3f], the inhibition at 10 µM came out at 5.8%.

Turning to `COC(=O)C1(c2ccccc2)OC(c2cccc(OC)c2)C2C(=O)N(c3ccccc3)C(=O)C21` (centres unmarked) [ATX-3g], the inhibition at 10 µM is -30.1%.

Consider `CCN1C(=O)C2C(c3cccc(F)c3)OC(C(=O)OC)(c3ccc(C(C)(C)C)cc3)C2C1=O` (centres unmarked) [ATX-3h], for which the inhibition at 10 µM was -5.76%.

Take `COC(=O)C1(c2ccccc2)OC(c2cccc(F)c2)C2C(=O)N(c3ccccc3)C(=O)C21` (centres unmarked) [ATX-3i]: the inhibition at 10 µM was -37.4%.

As for `COC(=O)C1(c2cccc(OC)c2)OC(c2cccc(Cl)c2)C2C(=O)N(Cc3ccccc3)C(=O)C21` (centres unmarked) [ATX-3j], the inhibition at 10 µM came out at 16.2%.

In the case of `COC(=O)C(OCCCCOC1=CC(=O)CC(C)(C)C1)c1ccc(Br)cc1` (centres unmarked) [ATX-4a], the inhibition at 10 µM is 18.7%.

In the case of `COC(=O)C(OCCCCOC1=CC(=O)CC(C)(C)C1)c1cccc(OC)c1` (centres unmarked) [ATX-4b], the inhibition at 10 µM was 12.6%.

`COC(=O)C(OCCCCOC1=CC(=O)CC(C)(C)C1)c1ccc(C(C)(C)C)cc1` (centres unmarked) [ATX-4c]: the inhibition at 10 µM is -19.6%.

`Cc1ccccc1C(OCCCCOC1=CC(=O)CC(C)(C)C1)C(=O)OCc1ccccc1` (centres unmarked) [ATX-4e]: the inhibition at 10 µM was determined as 33.6%.

Regarding `COC(=O)C(OCCCCOC1=CC(=O)CC(C)(C)C1)c1cccc(Cl)c1` (centres unmarked) [ATX-4f], the inhibition at 10 µM was found to be 40.7%.

In the case of `COC(=O)C(OCCCCOC1=CC(=O)CC(C)(C)C1)c1ccccc1` (centres unmarked) [ATX-4g], the inhibition at 10 µM came out at 32.6%.

On to `COC(=O)C(OCCCCOC1=CC(=O)CC(C)(C)C1)c1cccc(C(F)(F)F)c1` (centres unmarked) [ATX-4i], for which the inhibition at 10 µM came out at 15.2%.

Turning to `COC(=O)C(OCCCCOC1=CC(=O)CC(C)(C)C1)c1cccc(F)c1` (centres unmarked) [ATX-4j], the inhibition at 10 µM worked out at 41.4%.

On to `CCOC(=O)C1C(C(=O)OCC)C12C(=O)N(C(C)=O)c1ccccc12` (centres unmarked) [ATX-5c], for which the inhibition at 10 µM is -4.52%.

With `CCOC(=O)C1C(C(=O)OCC)C12C(=O)N(C(=O)OC(C)(C)C)c1ccc(Br)cc12` (centres unmarked) [ATX-5g], the inhibition at 10 µM was -0.48%.

`CCOC(=O)C1C(C(=O)OCC)C12C(=O)N(C(C)=O)c1ccc(C)cc12` (centres unmarked) [ATX-5j]: the inhibition at 10 µM is -10.2%.
